Measured values reported in patent US6855829B2, “3-fluoro-2-oxindole modulators of KCNQ potassium channels and use thereof in treating migraine and mechanistically related disease” (Bristol-Myers Squibb Company, priority 2001, dated 2005).
“Also recorded” adds a separate entry of the source. Where two headings read alike, the source gives them in different places.

Columns and labels:
[1] = molecular target: murine KCNQ2 (mKCNQ2) (Mus musculus, UniProt Q9Z351); test: Two-electrode voltage clamp, Xenopus oocyte expressed mKCNQ2-mediated outward currents; type: cell-based; settings: 10 μM, Xenopus oocytes
Sequence of murine KCNQ2 (mKCNQ2) (Q9Z351 whole entry): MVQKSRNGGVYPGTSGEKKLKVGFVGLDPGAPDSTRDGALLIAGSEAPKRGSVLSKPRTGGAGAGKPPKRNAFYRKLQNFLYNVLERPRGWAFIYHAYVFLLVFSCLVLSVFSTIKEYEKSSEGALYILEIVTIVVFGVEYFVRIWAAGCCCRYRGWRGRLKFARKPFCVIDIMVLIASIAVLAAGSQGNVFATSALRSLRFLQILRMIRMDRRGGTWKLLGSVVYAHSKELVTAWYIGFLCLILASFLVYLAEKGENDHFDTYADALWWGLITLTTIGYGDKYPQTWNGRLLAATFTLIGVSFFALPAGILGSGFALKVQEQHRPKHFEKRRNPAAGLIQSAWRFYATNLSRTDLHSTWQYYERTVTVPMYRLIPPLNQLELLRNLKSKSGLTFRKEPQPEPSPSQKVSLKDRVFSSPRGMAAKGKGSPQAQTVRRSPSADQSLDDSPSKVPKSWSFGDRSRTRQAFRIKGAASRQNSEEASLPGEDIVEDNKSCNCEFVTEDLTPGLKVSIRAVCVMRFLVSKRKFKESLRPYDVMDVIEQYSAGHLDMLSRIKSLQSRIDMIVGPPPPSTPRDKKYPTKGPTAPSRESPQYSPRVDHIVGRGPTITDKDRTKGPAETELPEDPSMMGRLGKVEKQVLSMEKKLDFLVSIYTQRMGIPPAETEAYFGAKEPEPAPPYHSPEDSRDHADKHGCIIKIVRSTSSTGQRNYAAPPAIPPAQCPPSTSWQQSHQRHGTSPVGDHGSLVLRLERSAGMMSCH
Experimental: (§1) The ability of the compounds described herein to open KCNQ channels and increase whole-cell outward (K^+) KCNQ-mediated currents was assessed under voltage-clamp conditions by determining their ability to increase cloned […] KCNQ2 (mKCNQ2)-mediated, heteromultimeric murine KCNQ2/3 (mKCNQ2/3)-mediated, and heterologous human KCNQ5 (hKCNQ5)-mediated outward currents expressed in Xenopus oocytes. Oocytes were prepared and injected using standard techniques; each oocyte was injected with approximately 50 nl of mKCNQ2, or hKCNQ5 cRNA. In the case of mKCNQ2/3 heteromultimeric channel expression, equal amounts (25-50 nL) of each cRNA were co-injected.
(§2) Following injection, oocytes were maintained at 17° C. in ND96 medium containing (in mM): NaCl, 90; KCl, 1.0; CaCl2, 1.0; MgCl2, 1.0; HEPES, 5.0; pH 7.5. Horse serum (5%) and penicillin/streptomycin (5%) were added to the incubation medium. Recording commenced 2-6 days following mRNA injection. […]
(§3) Frog (Xenopus laevis) oocytes were impaled with electrodes (1-2 MΩ) and standard 2-electrode voltage clamp techniques were employed to record whole-cell membrane currents. […] Compounds were evaluated at a single concentration (10 or 20 μM), and the effect of the selected compounds of Formula I on KCNQ2 current was expressed as the percent of control current. […]

[2] = tested on: cortical spreading depression; test: Cortical spreading depression elicited by KCl application; type: in vivo; settings: rat, 0.1, 1.0, 5.0, 10.0 and 30.0 mg/kg i.v. vs vehicle (overall ANOVA p<0.001)
Experimental: (§4) Male Long-Evans rats (Harlan, 250-400 g) were used in the experiments described in this example. Prior to testing, rats were allowed access to food and water ad libitum and were maintained on a 12:12 hours light/dark cycle. Rats were group housed in an Association for Assessment and Accreditation of Laboratory Animal Care (A.A.A.L.A.C.) accredited facility and cared for in strict compliance with all applicable regulations.
Rats were anesthetized with urethane anesthesia (1.2 g/kg i.p.), implanted with a jugular vein catheter for drug injections, and placed in a stereotaxic frame. The skull was exposed and a small hole (approximately 2 mm by 3 mm) was drilled in the skull rostral to the lambdoid suture using a microdrill and steel burr creating a “well”. The dura was disrupted and a drop of mineral oil was placed in this well. Crystalline KCl was later applied to the well for 10 minutes to elicit spreading depression. Typically, this application produced a long-lasting series of spreading depressions.
Two additional holes were placed in the skull unilaterally at 4 and 8 mm rostral to the application hole. Silver wire electrodes were placed in these latter holes and secured to the skull using acrylic cement. […]
Differences between control and drug conditions were assessed using analyses of variance (ANOVA) and appropriate post-hoc analyses. […]

[3] = tested on: SSS-stimulated field responses recorded in the trigeminal nucleus caudalis; test: SSS-stimulated trigeminal field response (in vivo model of migraine); set-up: species or system rat
Experimental: as §4
SSS stimulation and recording were performed in a manner consistent with previously published methods using cat (K. L. Hoskin et al., 1996, Brain, 119:101-108) and rat (M. J. Cumberbatch et al., 1998, Eur. J. Pharmacol., 362:43-46; and M. J. Cumberbatch et al., 1999, Br. J. Pharmacol., 126:1478-1486) animal models. Rats were anesthetized with 1.2 g/kg i.p. urethane (#U-2500, Sigma Chemical Company, St. Louis, Mo.) and given supplemental urethane as needed. In the case of intravenous (i.v.) drug administration (e.g., (+)-3-[5-Chloro-2-[(2,2,2-trifluoroethoxy)phenyl]-1,3-dihydro-3-fluoro-6-(trifluoromethyl)-2H-indol-2-one), the jugular veins of the rats were cannulated using sylastic tubing pre-filled with vehicle. […]
Stimulated field responses were recorded in the trigeminal nucleus caudalis using Teflon coated stainless-steel microelectrodes (5 MΩ impedance, Frederick Haer, Brunswick, Me.) and amplified and filtered (0.1 Hz-10 kHz) using a differential amplifier (#IsoDAM8, World Precision Instruments, Sarasota, Fla.). […]
Three baseline measures (i.e., 100% of control), each consisting of 100 evoked trigeminal field potentials, were sampled prior to drug injection. […] Following injection of test substances, data were sampled for 1 hour, averaged into 5 minute bins (90 evoked potentials) and expressed as a percent change from average baseline values for the purposes of statistical analysis. Data were analyzed using repeated measures analyses of variance comparing vehicle and drug effects. […]

[4] = molecular target: human KCNQ5 (hKCNQ5) (Homo sapiens, UniProt Q9NR82); test: Two-electrode voltage clamp, Xenopus oocyte-expressed hKCNQ5-mediated outward currents; type: cell-based; settings: Xenopus oocytes, n=3, single concentration (10 or 20 μM)
Sequence of human KCNQ5 (hKCNQ5) (Q9NR82 whole entry): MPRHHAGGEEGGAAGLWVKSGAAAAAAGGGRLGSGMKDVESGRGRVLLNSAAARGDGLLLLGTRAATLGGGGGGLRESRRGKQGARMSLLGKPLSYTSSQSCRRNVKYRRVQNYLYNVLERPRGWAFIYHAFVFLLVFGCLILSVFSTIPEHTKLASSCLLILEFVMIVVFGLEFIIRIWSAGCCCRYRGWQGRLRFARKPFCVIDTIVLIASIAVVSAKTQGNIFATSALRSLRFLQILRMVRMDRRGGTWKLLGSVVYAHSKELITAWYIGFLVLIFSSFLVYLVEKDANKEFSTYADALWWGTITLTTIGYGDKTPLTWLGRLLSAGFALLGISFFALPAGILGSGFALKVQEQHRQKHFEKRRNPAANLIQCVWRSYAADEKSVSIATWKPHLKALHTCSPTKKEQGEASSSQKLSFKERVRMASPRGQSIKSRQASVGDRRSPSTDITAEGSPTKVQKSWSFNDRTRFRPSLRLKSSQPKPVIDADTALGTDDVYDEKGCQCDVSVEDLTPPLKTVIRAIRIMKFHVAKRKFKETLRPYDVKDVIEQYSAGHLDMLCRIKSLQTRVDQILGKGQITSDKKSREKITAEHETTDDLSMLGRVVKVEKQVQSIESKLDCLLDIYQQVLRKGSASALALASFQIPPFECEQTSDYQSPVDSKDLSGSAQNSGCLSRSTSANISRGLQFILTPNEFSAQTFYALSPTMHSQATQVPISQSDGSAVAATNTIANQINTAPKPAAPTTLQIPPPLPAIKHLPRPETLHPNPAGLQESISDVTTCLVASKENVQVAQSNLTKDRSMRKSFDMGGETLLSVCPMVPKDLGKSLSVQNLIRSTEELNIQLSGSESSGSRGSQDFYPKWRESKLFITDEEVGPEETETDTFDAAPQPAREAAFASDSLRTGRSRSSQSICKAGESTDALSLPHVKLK
Experimental: as §1, §2, §3

[5] = tested on: SSS-stimulated trigeminal activity; settings: cited from earlier work

## O=C1Nc2cc(C(F)(F)F)ccc2C1(F)c1cc(Cl)ccc1OCC(F)(F)F (single isomer, unassigned; (+)) [Compound 1]
[1]
  increase of KCNQ2 current over the KCNQ2 current in controls: > 150%
[2]
  number of spreading depressions produced by a single 10 min KCl application: significant reduction
[3]; rat, 50 mg/kg i.v. (highest dose)
  decrease in trigeminal field potentials from control amplitude: 86.7±1.67%
[3]; rat, doses 0.1, 1.0, 10.0, 30.0 and 50.0 mg/kg i.v., vs vehicle (p<0.01 in all cases; overall ANOVA p<0.001)
  effect on SSS-stimulated trigeminal field response: dose-dependent reduction; also recorded: significant reduction; also recorded: dose-dependent decrease
[4]
  human KCNQ5-mediated outward currents, % of control: 157.4+/−6.0 % of control

## O=C(NCc1ccc(C(F)(F)F)cc1)c1cnc(N2CCCC2)nc1C(F)(F)F [Compound 2, 2-(Pyrrolidin-1-yl)-4-(trifluoromethyl)-N-[[4-(trifluoromethyl)phenyl]methyl]pyrimidine-5-carboxamide]
[3]; urethane anesthetized rats, 1 mg/kg i.v.
  effect on SSS stimulation evoked trigeminal field potential amplitude: statistically significant (p=0.005) decrease

## CN1C[C@H](C(=O)N[C@]2(C)O[C@@]3(O)[C@@H]4CCCN4C(=O)[C@H](Cc4ccccc4)N3C2=O)C[C@@H]2c3cccc4[nH]cc(c34)C[C@H]21 [dihydroergotamine]
[5]; literature reports
  physiological measures of SSS-stimulated trigeminal activity: decrease

## CNS(=O)(=O)CCc1ccc2[nH]cc(C3CCN(C)CC3)c2c1 [naratriptan]
[5]; literature reports
  physiological measures of SSS-stimulated trigeminal activity: decrease

## CN(C)CCc1c[nH]c2ccc(Cn3cncn3)cc12 [rizatriptan]
[5]; literature reports
  physiological measures of SSS-stimulated trigeminal activity: decrease

## CNS(=O)(=O)Cc1ccc2[nH]cc(CCN(C)C)c2c1 [sumatriptan]
[5]; following blood-brain-barrier disruption, literature report
  physiological measures of SSS-stimulated trigeminal activity: decrease

## CN(C)CCc1c[nH]c2ccc(C[C@H]3COC(=O)N3)cc12 [zolmitriptan]
[5]; literature reports
  physiological measures of SSS-stimulated trigeminal activity: decrease
